Data published in article PMC11234460, “In Silico Discovery of Stapled Peptide Inhibitor Targeting the Nur77‐PPARγ Interaction and Its Anti‐Breast‐Cancer Efficacy” (Advanced Science, 2024).
Where a SMILES comes first, the peptide text is derived from it. Bridges are numbered along the chain shown (N, C = ends). [ ]: non-standard residue; d: D form. S5 = C=CCCC[C@](C)(N)C(=O)O

Legend:
MDA-BoM-1833 cells = experiment: Cell viability assay (CCK-8); type: cell-based; conditions: MDA-BoM-1833, 5 × 10^−6 M, 24 h
Experimental: (§1) MCF7, MDA‐MB‐231, and MDA‐BoM‐1833 cells (5000 cells/well) were seeded in 96‐well plates and cultured overnight at 37°C and 5% CO2. The cells were then treated with fresh basic medium containing various concentrations (1/2/5/10/20 × 10^−6 M) of compounds. After 24 h of incubation, the cells were incubated with a basic medium containing 10% Cell Counting Kit‐8 (Dojindo, CK‐04) for 2 h. Cell viability was evaluated by measuring the absorbance at 450 nm. The formula used was [(As‐Ab)/(Ac‐Ab)] × 100%, where as represents the absorbance of the drug‐treated group, Ac represents the absorbance of the control group treated with medium, and Ab represents the absorbance of the blank control containing only medium.

[1] = tested on: Nur77-knockdown MCF7 and MDA-MB-231 cells; experiment: Cell viability assay (CCK-8), Nur77-knockdown breast tumor cells; type: cell-based; conditions: Nur77-knockdown MCF7 and MDA-MB-231, 24 h
Experimental: Cells were seeded 24 h prior to transfection. Transfection was performed with Transfect‐Mate (GenePharma, G04009) according to the manufacturer's protocols. To transfect siRNA into cells seeded on 6 well cell culture plates, 150 pmol of siRNA was mixed with 8 µL Transfect‐Mate, incubated at room temperature for 15 min, and then added to the cells. The medium was changed to DMEM after 6 h of culture, and the cells were incubated at 37 °C in a 5% CO2 incubator. 48 h later, the siRNA was successfully expressed and could be used for further experiments. The siRNAs used were listed in Table S1 (Supporting Information).

[2] = tested on: mutated Nur77-EGFP (Gln571, Glu398, Phe598); experiment: MST with mutated Nur77-EGFP in HEK293T cell lysate; type: binding; conditions: Nur77 mutated at Gln571, Glu398 and Phe598, Monolith NT.115, 40% MST power
Experimental: The MST measure for the affinity of the peptide with purified Nur77 LBD protein was performed by Dianthus (Nano Temper). First, 1 × 10^−5 M protein was labeled with fluorescent dye and incubated with variable concentrations (0.1/0.4/0.8/1.6/3.1/6.3/12.5/25/50/100 × 10^−6 M) of peptides in PBST (containing 0.05% Tween‐20) (v/v, 10 µL: 10 µL). Incubated at room temperature away from light for 20 min, the mixture was loaded into the capillary and scanned. The MST measure for the affinity of the peptide with mutated Nur77‐EGFP was performed by Monolith NT.115 (Nano Temper). The HEK293T cell lysate was collected after transfection with the mutated Nur77‐EGFP plasmid for 48 h. The level of mutated Nur77‐EGFP was verified by the detection of fluorescence intensity. Different concentrations (0.1/0.4/0.8/1.6/3.1/6.3/12.5/25/50/100 × 10^−6 M) of ST‐CY14 were mixed with the cell lysate (v/v, 5 µL:5 µL) and incubated for 20 min. The measurement was carried out at 40% MST power.

MDA-MB-231 cells [3] = experiment: Energy metabolism analysis (Seahorse OCR); type: cell-based; conditions: MDA-MB-231, 24 h treatment, n = 3
Experimental: Cell energy metabolism analysis was conducted using a Seahorse cell energy metabolism analyzer (Agilent, USA). In brief, 8000 cells were seeded per well in a 96‐well XF96 plate (Agilent, 103794‐100) and cultured overnight. Subsequently, the cells were treated with various concentrations of peptides for 24 h. To prepare for metabolic stress injections, cartridge plates (Agilent, w15023) were hydrated with H2O for at least 12 h at 37 °C before the assay. 1 h before detection, the medium in each well was replaced with 180 µL XF calibrant solution (Agilent, 100840‐000), Afterward, the cell plate was replaced with 180 µL XF DMEM (Agilent, 103575‐100) with glucose (1 × 10^−2 M) (Agilent, 103577‐100), pyruvate (1 × 10^−3 M) (Agilent, 103578‐100) and glutamine (2 × 10^−3 M) (Agilent, 103579‐100) and the mixture was incubated in a CO2‐free incubator at 37 °C for 1 h. Then, 20 µL basic medium, 22 µL 1.5 × 10^−4 M oligomycin, 25 µL 1.5 × 10^−4 M FCCP, and 27 µL 5 × 10^−5 M ROT/AA (Agilent, 10315‐100) were added to wells A, B, C, and D, respectively, of the cartridge plates. The assay was carried out according to the manufacturer's instructions, and the OCR was reported in picomoles per min. The results were normalized to the cell number determined by the CCK‐8 assay.

MDA-MB-231 cells [4] = experiment: Transwell cell migration analysis; type: cell-based; conditions: MDA-MB-231, 12 h
Experimental: 600 µL DMEM complete medium was added to the lower chamber of the Transwell. Next, 2×10^4 cells in 100 µL DMEM medium, containing 1, 2, 5, 10, or 2 × 10^−5 M peptides, were added to the upper chamber of the Transwell. The cells were incubated for 12 h at 37 °C and 5% CO2. After the incubation period, the medium was discarded, and the chamber was washed with PBS. The cells were then fixed with 4% paraformaldehyde for 20 min. The upper chamber was subsequently soaked in crystal violet for 20 min, washed with PBS, and observed under a microscope for analysis.

[5] = CD spectroscopy, α-helicity; type: physicochemical; conditions: 5 × 10^−5 M peptide in H2O, 25 °C, 1 mm cuvette, 185-260 nm
Experimental: The detection wavelengths of the peptides were 214 and 254 nm. Solvent A: H2O (containing 0.1% TFA) and solvent B: acetonitrile (containing 0.1% TFA) were used as solvents in linear gradient mixtures. Peptide purification was performed by semi‐preparative HPLC using an XBridge Prep C18 column (19 × 250 mm, 10 µm particle size, flow rate of 20 mL min^−1). Solvents A and B were the same as those in the peptide analysis procedure. The peptides were dissolved in H2O to a final concentration of 5 × 10^−5 M. The purified peptide was detected using a mass spectrometer (6410 Triple Quad LC/MS, Agilent, USA) (Table S2, Supporting Information). The solvent was 80% methanol and 20% H2O (containing 0.1% formic acid). The CD spectra were obtained with a 1 mm quartz cuvette on a BRIGHT TIME Chirasca (Applied Photophysics, Britain) spectropolarimeter with a scan wavelength between 185–260 nm at 25 °C. The helicity of each peptide was calculated by the literature equation.^[ [24] ^]

MCF7 cells [6] = experiment: qPCR of CD36 and FABP4; type: cell-based, human; conditions: n = 3
MDA-MB-231 cells [7] = experiment: Cell viability assay (CCK-8); type: cell-based; conditions: MDA-MB-231, 5 × 10^−6 M, 24 h
Experimental: as §1

MCF7 cells [8] = experiment: Cell viability assay (CCK-8); type: cell-based, human; conditions: MCF7, 5 × 10^−6 M, 24 h
Experimental: as §1

Solubility test in PBS = type: physicochemical; conditions: PBS buffer, aqueous buffer, 1 mg in 50 µL, gradient diluted from 20 to 0.078125 mg mL^−1, OD at 600 nm (turbidity), plate reader
Experimental: Mix 1 mg ST‐CY14 or Csn‐B (Shanghai Sunny Biotech) in 50 µL PBS buffer, and then transfer 40 µL the suspension to a 96‐well plate. The suspension was gradient diluted from 20 to 0. 07 8125 mg mL^−1. OD values were measured at 600 nm on a Cytation 5 (Biotek, USA) plate reader. PBS was set as a blank control.

Question: With `C[C@@H](O)[C@@H]1NC(=O)[C@H](CCCNC(=N)N)NC(=O)[C@H](CCCNC(=N)N)NC(=O)[C@@](C)(NC(=O)[C@H](Cc2ccccc2)NC(=O)CNC(=O)[C@H](CCCCN)NC(=O)[C@H](CS)NC(=O)CNC(=O)[C@H](CCC(=O)O)NC(=O)[C@@H](N)CS)CCCC=CCCC[C@@](C)(C(=O)N[C@@H](CCCNC(=N)N)C(=O)N[C@@H](Cc2ccc(O)cc2)C(=O)N[C@@H](Cc2ccc(O)cc2)C(=O)NCC(=O)N[C@@H](CCCNC(=N)N)C(=O)N[C@@H](CCCCN)C(=O)N[C@@H](CCCCN)C(=O)N[C@@H](CCCNC(=N)N)C(=O)N[C@@H](CCCNC(=N)N)C(=O)N[C@@H](CCC(N)=O)C(=O)N[C@@H](CCCNC(=N)N)C(=O)N[C@@H](CCCNC(=N)N)C(=O)N[C@@H](CCCNC(=N)N)C(N)=O)NC1=O` [ST-CY14] (H-CEGCKGF[S5]RRT[S5]RYYGRKKRRQRRR-NH2; staple 8-12) as the compound, how does the “Cell viability / proliferation” value (MDA-BoM-1833 cells) read?
Answer: Its value is “significantly attenuated breast tumor cell proliferation”.

Question: What about the “Sensitivity of Nur77-knockdown breast tumor cells” value [1] of the same compound?
Answer: The value was “less sensitive to ST‐CY14”.

Question: And the “Interaction with mutated Nur77 (MST)” value [2]?
Answer: Its value is “disrupted the interaction”.

Question: And the “Oxygen consumption rate (OCR)” value (MDA-MB-231 cells [3])?
Answer: Its value is “significantly reduced”.

Question: What about the Transwell transmigration (MDA-MB-231 cells [4]) of the same compound?
Answer: The Transwell transmigration was “inhibited the transmigration”.

Question: What about the “α-Helicity (CD)” value [5] of the same compound?
Answer: The value was 12.01%.

Question: What about the “CD36 and FABP4 transcription (qPCR)” value (MCF7 cells [6]) of the same compound?
Answer: Its value is “dose‐dependently inhibited CD36 and FABP4 expression at the transcriptional level”.

Question: What about the “Cell viability / proliferation” value (MDA-MB-231 cells [7]) of the same compound?
Answer: The value was “significantly attenuated breast tumor cell proliferation”.

Question: And the “Cell viability / proliferation” value (MCF7 cells [8])?
Answer: Its value is “significantly attenuated breast tumor cell proliferation”.

Question: And the solubility (Solubility test in PBS)?
Answer: The solubility was > 20 mg/mL.
